Experimental data taken from PMC12311725, “Identification of Ginsentide-like Peptides from Cacao Beans with Oxidative Stress Protection” (ACS Omega, 2025).
Where a SMILES comes first, the peptide text is derived from it. Bridges are numbered along the chain shown (N, C = ends).

How the values were obtained:
[1] = Ferric Reducing Antioxidant Power (FRAP) assay
Procedure: OxiSelect Ferric Reducing Antioxidant Power (FRAP) Assay Kit (Cell Biolabs, USA) was used to measure the antioxidant potential of cocotide tC1. The assay was performed according to the manufacturer’s instructions .

[2] = Peptide stability assay with trypsin (RP-HPLC); assay type: in vitro ADME; settings: isolated enzyme trypsin, trypsin in 0.1 M ammonium bicarbonate buffer pH 8, 37 °C, peptide 0.1 M [sic], RP-HPLC peak area as % of initial, read-out: structural integrity retained (percentage of peptide remaining) after incubation with trypsin
Procedure: (§1) Stability studies were conducted using purified cocotide tC1 (0.1 M) and S-alkylated tC1 (iodoacetamido) under specific buffer conditions. Pepsin stability was assessed by incubating the samples in a mixture of pepsin at a ratio of 50:1 (w/v) in 0.2 M HCl at 37 °C. For trypsin stability, the samples were treated with trypsin in 0.1 M ammonium bicarbonate buffer (pH 8) at 37 °C. Analysis of stability assays involved collecting samples at various time points, which were then analyzed by reversed-phase high-performance liquid chromatography (RP-HPLC) using a linear gradient of mobile phase A (0.05% trifluoroacetic acid in water) and mobile phase B (0.05% trifluoroacetic acid in acetonitrile) on an Aeris Peptide XB-C18 column (Phenomenex). The stability results were expressed as a percentage of the initial concentration and determined by the peak area of the HPLC profile.
(§2) 7 Proteolytic stability assays of cocotide tC1. Cocotide tC1 was incubated with either pepsin or trypsin at 37 °C for up to 6 h. S-alkylated tC1 was used as the control. At different time points, samples of cocotide tC1 and the control were quantified using reversed-phase high pressure liquid chromatography (RP-HPLC). The relative peak areas of the RP-HPLC profiles were used to quantify the percentage of peptides remaining after incubation with pepsin or trypsin.

[3] = Iron-binding assay (High-Select Fe-NTA spin column, RP-HPLC of flowthroughs); settings: 1 h at room temperature, six water washes, elution
Procedure: The High-Select Fe-NTA Phosphopeptide Enrichment Kit (Thermo Fisher Scientific, USA) was used to investigate the iron-binding abilities of cocotide tC1. Briefly, cocotide tC1 was suspended in the binding buffer provided. The spin column was first equilibrated by adding 200 μL of the binding buffer and then centrifuged at 1000 × g for 30 s (Thermo Fisher Scientific, USA). The suspended peptide sample was added to the spin column and incubated for 1 h at room temperature. The sample was then centrifuged again at 1000 × g for 30 s, and the flowthrough was collected. The spin column was then washed six times with 100 μL of deionized water. Each time, the sample was centrifuged at 1000 × g for 30 s before collecting the flowthrough. Finally, 100 μL of the elution buffer provided was added, and the sample was centrifuged at 1000 × g for another 30 s before collecting the final eluted flowthrough. All eight flowthroughs were analyzed by using RP-HPLC.

[4] = Post-translational modification analysis of methionine oxidation (tims-TOF MS/MS); assay type: physicochemical; settings: native peptide, during extraction and purification
Procedure: The primary sequences of cocotides from Theobroma cacao aqueous extracts were determined by LC-MS/MS sequencing as described previously. The C18-SPE fractionated Theobroma cacao aqueous extracts were redissolved in 20 mM DTT at 37 °C for 1 h followed by S-alkylation with 200 mM iodoacetamide at 37 °C for 1 h. The mixture was desalted with a C18 Zip-tip and subjected to analysis on a trapped ion mobility spectrometer-time-of-flight tandem mass spectrometer (tims-TOF MS/MS). Data analysis was performed using PEAKS Studio (version 11, Bioinformatics Solutions, Waterloo, ON, Canada) with a precursor ion tolerance of 10 ppm and a fragment ion tolerance of 0.05 Da. Carbamidomethylation at Cys was set as a fixed modification. Deamidation of […], oxidation of Met, and acetylation at Lys and N-term were set as variable modification. Peptide sequencing was performed using PEAKS DB protein identification, which integrates database search of an in-house ginsentide-like peptide library derived from Theobroma cacao transcriptome with de novo sequencing.

HaCaT cell lysate = target: T1, HaCaT cell lysate (Homo sapiens, UniProt P22830); assay type: binding; settings: affinity enrichment mass spectrometry
T1 construct: incubated with HaCaT keratinocyte lysates; endogenous in cells; host or cells: HaCaT human keratinocytes
T1 sequence (P22830 55-423): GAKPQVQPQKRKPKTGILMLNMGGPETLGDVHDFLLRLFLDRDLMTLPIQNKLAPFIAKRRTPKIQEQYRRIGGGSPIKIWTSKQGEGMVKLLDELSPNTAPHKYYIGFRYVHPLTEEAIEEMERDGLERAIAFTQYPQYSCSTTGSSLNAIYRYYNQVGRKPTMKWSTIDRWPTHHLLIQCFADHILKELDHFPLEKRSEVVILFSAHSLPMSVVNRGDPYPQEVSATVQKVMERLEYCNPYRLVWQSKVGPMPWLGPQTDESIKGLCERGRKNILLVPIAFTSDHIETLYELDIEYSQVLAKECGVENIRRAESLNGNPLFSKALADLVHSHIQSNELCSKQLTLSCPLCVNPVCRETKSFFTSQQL

[5] = Peptide stability assay with pepsin (RP-HPLC); assay type: in vitro ADME; settings: isolated enzyme pepsin, pepsin 50:1 (w/v) in 0.2 M HCl, 37 °C, peptide 0.1 M [sic], RP-HPLC peak area as % of initial, read-out: structural integrity retained (percentage of peptide remaining) after incubation with pepsin
Procedure: as §1, §2

CC[C@H](C)[C@@H]1NC(=O)CNC(=O)[C@H](CCSC)NC(=O)[C@@H]2CCCN2C(=O)[C@H](Cc2ccc(O)cc2)NC(=O)[C@H](CC(C)C)NC(=O)[C@@H]2CSSC[C@@H]3NC(=O)[C@H](Cc4ccccc4)NC(=O)CNC(=O)CNC(=O)[C@H](C)NC(=O)[C@H](CO)NC(=O)[C@H](CC(C)C)NC(=O)[C@@H](N)CSSC[C@@H]4NC(=O)[C@H](CSSC[C@H](NC1=O)C(=O)N[C@@H](Cc1ccc(O)cc1)C(=O)NCC(=O)N[C@@H](CO)C(=O)NCC(=O)N[C@H](C(=O)O)CSSC[C@H](NC(=O)[C@H](CC(N)=O)NC(=O)CNC4=O)C(=O)NCC(=O)N2)NC(=O)[C@H](CC(=O)O)NC(=O)[C@H](CCSC)NC(=O)[C@@H]1CCCN1C(=O)[C@H](CC(N)=O)NC(=O)[C@H](Cc1ccccc1)NC(=O)[C@H](CCSC)NC3=O [cocotide tC1] (H-CLSAGGFCMFNPMDCCGNCGCLYPMGICYGSGC-OH; disulfide 1-16, 8-21, 15-28, 19-33; N-terminus and C-terminus assumed)
antioxidant power relative to ascorbic acid ([1]; FRAP value of tC1 versus ascorbic acid (positive control)): 152 fold | FRAP value ([1]; OxiSelect FRAP Assay Kit): 55.1 Fe^2+ μM/μM | remaining at 6 h [2]: > 80% | interaction with Fe-NTA agarose resin [3]: interacts with the Fe-NTA agarose resin | Met19 and Met25 oxidized to Met(O) [4]: < 5% | methionine at position 9 converted to Met(O) [4]: 27% | ferrochelatase as interacting protein (HaCaT cell lysate): significant interacting partner | remaining at 6 h [5]: > 80%
